Data: patent US4231928A, “Antibacterial agents” (priority 1979, dated 1980)
Read-outs that look alike come from different tables or passages of the source.

How the values were obtained:
[1] = Mouse blood levels after subcutaneous administration; conditions: in vivo, sc, 20 mg/kg
Description: Mouse blood levels of BB-[…] and BB-[…] were determined by subcutaneous administration of 20 mg/kg of the penicillin to groups of three mice. Blood samples collected from orbital sinuses were assayed by the paper disk agar-diffusion method on Sarcina lutea PC1 1001 plates.

[2] = tested on: P. mirabilis; experiment: Serial twofold agar dilution (Mueller-Hinton agar), P. mirabilis; type: cell-based; conditions: Proteus mirabilis
Description: (§1) The Minimum Inhibitory Concentrations (MIC) for sodium 6-[D-(-)-α-phenyl-α-(7-hydroxy-4-oxo-4H-pyrimido[1,2-b]pyridazin-3-ylcarboxamido)acetamido]penicillanate (BB-P598) and sulbenicillin were determined by the serial twofold agar dilution method using Steers' apparatus on Mueller-Hinton agar plates against 31 test organisms for the primary screening (Table 1) and also against 61 strains of Pseudomonas aeruginosa for the secondary evaluation (Table 2).
(§2) Minimum Inhibitory Concentrations (MIC) for sodium 6-[D-(-)-α-phenyl-α-(7-hydroxy-4-oxo-4H-pyrimido[1,2-b]pyridazin-3-ylcarboxamido)acetamido]pencillanate (BB-P598), sodium 6-[D-(-)-α-(4-hydroxyphenyl)-α-(7-hydroxy-4-oxo-4H-pyrimido[1,2-b]pyridazin-3-ylcarboxamido)acetamido]-penicillanate (BB-P642) and carbenicillin were determined by the serial twofold agar dilution method using Steers' apparatus on Mueller-Hinton agar plates against 31 tests organisms (Table 8) and also against 61 strains of Pseudomonas aeruginosa (Table 9). In terms of mean % relative activity compared with carbenicillin, compounds BB-B598 and BB-P642 were 856% and 1319% as active as carbenicillin against the 61 Pseudomonas strains of Table 9.

[3] = tested on: E. cloacae; experiment: Serial twofold agar dilution (Mueller-Hinton agar), E. cloacae; type: cell-based; conditions: Enterobacter cloacae
Description: as §1, §2

[4] = tested on: K. pneumoniae; experiment: Serial twofold agar dilution (Mueller-Hinton agar), K. pneumoniae; type: cell-based; conditions: Klebsiella pneumoniae, K. pneumoniae A9977, Table 8, read-out: MIC
Description: as §1, §2

[5] = tested on: P. vulgaris; experiment: Serial twofold agar dilution (Mueller-Hinton agar), P. vulgaris; type: cell-based; conditions: Proteus vulgaris, P. vulgaris A9539, Table 8, read-out: MIC
Description: as §1, §2

[6] = tested on: S. marcescens; experiment: Serial twofold agar dilution (Mueller-Hinton agar), S. marcescens; type: cell-based; conditions: Serratia marcescens, S. marcescens A20019, Table 8
Description: as §1, §2

[7] = tested on: Pseudomonas aeruginosa; experiment: Serial twofold agar dilution (Mueller-Hinton agar), P. aeruginosa; type: cell-based; conditions: for MIC: Pseudomonas aeruginosa
Description: as §1, §2

[8] = tested on: S. enteritidis; experiment: Serial twofold agar dilution (Mueller-Hinton agar), S. enteritidis; type: cell-based; conditions: Salmonella enterica, S. enteritidis A9531, Table 8, read-out: MIC
Description: as §1, §2

[9] = tested on: Klebsiella sp.; experiment: Serial twofold agar dilution (Mueller-Hinton agar), Klebsiella sp.; type: cell-based; conditions: Klebsiella sp. A20452, Mueller-Hinton agar, Table 8, read-out: MIC
Description: as §1, §2

[10] = tested on: S. aureus; experiment: Serial twofold agar dilution (Mueller-Hinton agar), S. aureus; type: cell-based; conditions: Staphylococcus aureus
Description: as §1, §2

[11] = tested on: E. coli; experiment: Serial twofold agar dilution (Mueller-Hinton agar), E. coli; type: cell-based; conditions: Escherichia coli
Description: as §1, §2

[12] = tested on: Pseudomonas sp.; experiment: Serial twofold agar dilution (Mueller-Hinton agar), Pseudomonas sp.; type: cell-based; conditions: Pseudomonas sp. A20358, Table 8, read-out: MIC
Description: as §1, §2

[13] = tested on: P. morganii; experiment: Serial twofold agar dilution (Mueller-Hinton agar), P. morganii; type: cell-based; conditions: Morganella morganii, P. morganii A9553, Table 8, read-out: MIC
Description: as §1, §2

CC1(C)S[C@@H]2[C@H](NC(=O)[C@H](NC(=O)c3cnc4ccc(O)nn4c3=O)c3ccc(O)cc3)C(=O)N2[C@H]1C(=O)O [BB-P642, Sodium 6-[D-(-)-α-(4-hydroxyphenyl)-α-(7-hydroxy-4-oxo-4H-pyrimido[1,2-b]pyridazin-3-ylcarboxamido)acetamido]-penicillanate]
concentration at 0.25 h [1]: 18000 ng/mL
concentration at 0.5 h [1]: 13500 ng/mL
concentration at 1 h [1]: 5200 ng/mL
MIC [2]: 3.1 µg/mL
MIC ([3]; E. cloacae A9656, Table 8): 25 µg/mL
MIC ([3]; E. cloacae A9657, Table 8): 100 µg/mL
MIC ([3]; E. cloacae A9659, Table 8): 25 µg/mL
MIC [4]: 6.3 µg/mL
MIC [5]: 50 µg/mL
MIC [6]: > 100 µg/mL
Mean % relative activity compared with carbenicillin ([7]; 61 strains of P. aeruginosa, Table 9): 1319%
MIC ([7]; 61 strains of P. aeruginosa, Table 9, read-out: Geometric mean of MIC): 2.27 µg/mL
MIC ([7]; A20229, Mueller-Hinton agar, Table 8, read-out: MIC): 0.4 µg/mL
MIC ([7]; ATCC19660, Pa-14 ATCC 19660 A20325, Mueller-Hinton agar, Table 9, read-out: MIC): 1.6 µg/mL
MIC ([7]; GN315, Pa-27 GN315 A21294, Mueller-Hinton agar, Table 9, read-out: MIC): 0.8 µg/mL
MIC ([7]; GN4925, Pa-45 GN 4925, Mueller-Hinton agar, Table 9, read-out: MIC): 3.1 µg/mL
MIC ([7]; P. aeruginosa A9843, Mueller-Hinton agar, Table 8, read-out: MIC): 1.6 µg/mL
MIC ([7]; P. aeruginosa A9930, Mueller-Hinton agar, Table 8, read-out: MIC): 1.6 µg/mL
MIC ([7]; P. aeruginosa A15150, Mueller-Hinton agar, Table 8, read-out: MIC): 0.8 µg/mL
MIC ([7]; P. aeruginosa A20717, Mueller-Hinton agar, Table 8, read-out: MIC): 3.1 µg/mL
MIC ([7]; Pa-2 V.A A9923, Mueller-Hinton agar, Table 9, read-out: MIC): 1.6 µg/mL
MIC ([7]; Pa-3 1449 V.A A9930, Mueller-Hinton agar, Table 9, read-out: MIC): 1.6 µg/mL
MIC ([7]; Pa-4 H9, D113 A21295, Mueller-Hinton agar, Table 9, read-out: MIC): 3.1 µg/mL
MIC ([7]; Pa-5 M4865, K.C A15150, Mueller-Hinton agar, Table 9, read-out: MIC): 1.6 µg/mL
MIC ([7]; Pa-6 No. 5 Levitan A15194, Mueller-Hinton agar, Table 9, read-out: MIC): 12.5 µg/mL
MIC ([7]; Pa-10 A21479, Mueller-Hinton agar, Table 9, read-out: MIC): > 100 µg/mL
MIC ([7]; Pa-11 A20616, Mueller-Hinton agar, Table 9, read-out: MIC): 1.6 µg/mL
MIC ([7]; Pa-12 A20653, Mueller-Hinton agar, Table 9, read-out: MIC): 1.6 µg/mL
MIC ([7]; Pa-15 A20717, Mueller-Hinton agar, Table 9, read-out: MIC): 6.3 µg/mL
MIC ([7]; Pa-16 #130 A20718, Mueller-Hinton agar, Table 9, read-out: MIC): 0.4 µg/mL
MIC ([7]; Pa-17 H6, D114, Mueller-Hinton agar, Table 9, read-out: MIC): 3.1 µg/mL
MIC ([7]; Pa-18 H8, D121, Mueller-Hinton agar, Table 9, read-out: MIC): 0.4 µg/mL
MIC ([7]; Pa-19 A20229, Mueller-Hinton agar, Table 9, read-out: MIC): 0.8 µg/mL
MIC ([7]; Pa-20 A20325, Mueller-Hinton agar, Table 9, read-out: MIC): 1.6 µg/mL
MIC ([7]; Pa-21 A20601, Mueller-Hinton agar, Table 9, read-out: MIC): 1.6 µg/mL
MIC ([7]; Pa-23 A20741, Mueller-Hinton agar, Table 9, read-out: MIC): 1.6 µg/mL
MIC ([7]; Pa-24 A20896, Mueller-Hinton agar, Table 9, read-out: MIC): > 100 µg/mL
MIC ([7]; Pa-25 A20897, Mueller-Hinton agar, Table 9, read-out: MIC): 1.6 µg/mL
MIC ([7]; Pa-26 PS32, Mueller-Hinton agar, Table 9, read-out: MIC): 12.5 µg/mL
MIC ([7]; Pa-28 C.P.H. 10527/72, Mueller-Hinton agar, Table 9, read-out: MIC): 1.6 µg/mL
MIC ([7]; Pa-29 D122, Mueller-Hinton agar, Table 9, read-out: MIC): 1.6 µg/mL
MIC ([7]; Pa-30 A20600, Mueller-Hinton agar, Table 9, read-out: MIC): 1.6 µg/mL
MIC ([7]; Pa-31 A20594, Mueller-Hinton agar, Table 9, read-out: MIC): 0.4 µg/mL
MIC ([7]; Pa-32 A20595, Mueller-Hinton agar, Table 9, read-out: MIC): 1.6 µg/mL
MIC ([7]; Pa-33 A20598, Mueller-Hinton agar, Table 9, read-out: MIC): 0.8 µg/mL
MIC ([7]; Pa-34 A20603, Mueller-Hinton agar, Table 9, read-out: MIC): 0.8 µg/mL
MIC ([7]; Pa-36, Mueller-Hinton agar, Table 9, read-out: MIC): 0.8 µg/mL
MIC ([7]; Pa-37 A20130, Mueller-Hinton agar, Table 9, read-out: MIC): 1.6 µg/mL
MIC ([7]; Pa-38 A20349, Mueller-Hinton agar, Table 9, read-out: MIC): 6.3 µg/mL
MIC ([7]; Pa-39 A20641, Mueller-Hinton agar, Table 9, read-out: MIC): 0.8 µg/mL
MIC ([7]; Pa-41 A21227, Mueller-Hinton agar, Table 9, read-out: MIC): 1.6 µg/mL
MIC ([7]; Pa-42 A21229, Mueller-Hinton agar, Table 9, read-out: MIC): 12.5 µg/mL
MIC ([7]; Pa-43 A21233, Mueller-Hinton agar, Table 9, read-out: MIC): 1.6 µg/mL
MIC ([7]; Pa-44 A21274, Mueller-Hinton agar, Table 9, read-out: MIC): 1.6 µg/mL
MIC ([7]; Pa-51 A9910, Mueller-Hinton agar, Table 9, read-out: MIC): 1.6 µg/mL
MIC ([7]; Pa-52 A9926, Mueller-Hinton agar, Table 9, read-out: MIC): 3.1 µg/mL
MIC ([7]; Pa-53 A20126, Mueller-Hinton agar, Table 9, read-out: MIC): 1.6 µg/mL
MIC ([7]; Pa-54 A20128, Mueller-Hinton agar, Table 9, read-out: MIC): 3.1 µg/mL
MIC ([7]; Pa-55 A20227, Mueller-Hinton agar, Table 9, read-out: MIC): 3.1 µg/mL
MIC ([7]; Pa-56 A20228, Mueller-Hinton agar, Table 9, read-out: MIC): 1.6 µg/mL
MIC ([7]; Pa-57 A20546, Mueller-Hinton agar, Table 9, read-out: MIC): 1.6 µg/mL
MIC ([7]; Pa-58 A20557, Mueller-Hinton agar, Table 9, read-out: MIC): 3.1 µg/mL
MIC ([7]; Pa-59 A20574, Mueller-Hinton agar, Table 9, read-out: MIC): 0.8 µg/mL
MIC ([7]; Pa-60 A20602, Mueller-Hinton agar, Table 9, read-out: MIC): 1.6 µg/mL
MIC ([7]; Pa-61 A20726, Mueller-Hinton agar, Table 9, read-out: MIC): 3.1 µg/mL
MIC ([7]; Pa-62 A21213, Mueller-Hinton agar, Table 9, read-out: MIC): > 100 µg/mL
MIC ([7]; Pa-64 A21336, Mueller-Hinton agar, Table 9, read-out: MIC): 0.8 µg/mL
MIC ([7]; Pa-65 A21428, Mueller-Hinton agar, Table 9, read-out: MIC): 1.6 µg/mL
MIC ([7]; Pa-66 A21434, Mueller-Hinton agar, Table 9, read-out: MIC): 3.1 µg/mL
MIC ([7]; Pa-67 A21509, Mueller-Hinton agar, Table 9, read-out: MIC): 3.1 µg/mL
MIC ([7]; Pa-68 A21510, Mueller-Hinton agar, Table 9, read-out: MIC): 3.1 µg/mL
MIC ([7]; Pa-69 A21587, Mueller-Hinton agar, Table 9, read-out: MIC): 3.1 µg/mL
MIC ([7]; Pa-70 K-PS102 (KR-102), Mueller-Hinton agar, Table 9, read-out: MIC): 1.6 µg/mL
MIC [8]: 3.1 µg/mL
MIC [9]: 12.5 µg/mL
MIC ([10]; S. aureus A15097, Table 8, read-out: MIC): > 100 µg/mL
MIC ([10]; S. aureus A20239, Table 8, read-out: MIC): 25 µg/mL
MIC ([10]; S. aureus A20240, Table 8, read-out: MIC): 12.5 µg/mL
MIC ([10]; S. aureus A20701, Table 8, read-out: MIC): > 100 µg/mL
MIC ([10]; S. aureus BX-1633 A9606, Table 8, read-out: MIC): 25 µg/mL
MIC ([10]; S. aureus Smith A9537, Table 8, read-out: MIC): 3.1 µg/mL
MIC ([11]; E. coli A9635, Table 8, read-out: MIC): 12.5 µg/mL
MIC ([11]; E. coli A9844, Table 8, read-out: MIC): 3.1 µg/mL
MIC ([11]; E. coli A20366, Table 8, read-out: MIC): > 100 µg/mL
MIC ([11]; E. coli A20520, Table 8, read-out: MIC): 6.3 µg/mL
MIC ([11]; E. coli A20664, Table 8, read-out: MIC): 1.6 µg/mL
MIC ([11]; E. coli A20732, Table 8, read-out: MIC): 100 µg/mL
MIC ([11]; E. coli A20898, Table 8, read-out: MIC): > 100 µg/mL
MIC ([11]; E. coli Juhl A15119, Table 8, read-out: MIC): 6.3 µg/mL
MIC ([11]; E. coli NIHJ, Table 8, read-out: MIC): 3.1 µg/mL
MIC [12]: 0.4 µg/mL
MIC [13]: > 100 µg/mL
